Assay results published in patent US10000521B2 (priority 2013, dated 2018).
Entries after “also recorded” stand apart in the source; their conditions may differ.

Legend:
PK9 cells = experiment: TC50 assay, effect of deficient deoxycytidine kinase activity, PK9 cells; type: cell-based; settings: Homo sapiens, 48 h, read-out: TC50 (μM), 48 h treatment
Procedure: Plating Cells: PK9 or RPK9 cells were seeded in 96-well plates at a density of 2,500 cells/well or 2,500 cells/well, respectively, and the plates were incubated at 37° C. for 24 h to allow for cell attachment.
Treating with Control & Compound 1: The cells were treated with each compound at final concentrations ranging from 500 μM to 0 μM in triplicate in media containing 2% FBS and 0.5% DMSO.
The RPK9 cells are described in Saiki, T., et al. (2012) Biochim. Biophys. Res. Commun. 421, 98-104).

BxPC3 = experiment: TC50 assay in different human cell lines (96 h), BxPC3; type: cell-based; settings: BXPC-3, about 96 h, MTS assay
Procedure: (§1) The 96-well plate with cells incubated with test compound was removed from the 37° C. incubator. The appropriate amounts of the MTS and PMS reagents were removed from the kit and mixed well. The reagents were maintained in the dark due to their light sensitivity. […] The solutions were mixed completely in the wells prior to each reading.
(§2) Plating Cells: Huh7, HEPG2, HEK293, MCF-7, or BxPC3 cells (which can be obtained from American Type Culture Collection, ATCC) were passaged when they were about 70% confluent. […] The cells following passaging were allowed to attach for about 24 hours at 37° C.
(§3) The plates were then returned to the incubator, and cells incubated for about 96 h at 37° C.
(§4) MTS Assay: Assay was carried out as described above.

[1] = In vivo pharmacokinetic assessment (LC-MS/MS, plasma and liver); settings: mice, oral
Procedure: All pharmacokinetic studies were performed with CD-1 ICR mice (female, 4-6 week old; 20-30 gram body weight), and three mice were used at each dose level and at each time point for each compound tested. […] Tetrahydrouridine (THU) was immediately added to plasma samples at a final concentration of 25 μg/mL to prevent deamination of dFdC after collection, and the samples were subsequently flash-frozen and stored at −80° C. until analysis. Approximately 200-300 mg of each mouse liver was dissected and homogenized in 150 μL of phosphate buffered saline (PBS) containing 25 μg/mL THU, resulting in 2 mg liver/μL saline homogenate. These liver homogenates were also flash-frozen and stored at −80° C. until analysis. Equivalent amounts of blood plasma and liver tissue were also collected from untreated mice and used to prepare calibration standards and quality controls. An LC-MS/MS assay was utilized to simultaneously quantify the concentrations of compound 1, dFdC and dFdU in each of the plasma and liver samples.

[2] = Stability test at different pH conditions (HPLC); type: physicochemical
Procedure: HPLC analysis: 100 μl of the incubated solution was loaded onto a Vydac C18 analytical column 4.6/250, and the mobile phase run at 1 mL/min water with the following procedures: a. Inject 100 μl the incubated solution; b. Water for 5 minutes at 1 ml/min; c. 0-100% acetonitrile over 30 minutes; d. Back to 100% water.
Analysis: Standard HPLC analysis software was used to quantitate the area under each peak. Degradation peaks were quantitated as a percentage of the peak of the same amount of control sample (no heat treatment).

MCF-7 = experiment: TC50 assay in different human cell lines (96 h), MCF-7; type: cell-based; settings: MCF7, about 96 h, MTS assay
Procedure: as §1, §2, §3, §4

## O=C(Nc1ccn(C2O[C@H](CO)[C@@H](O)C2(F)F)c(=O)n1)c1ccc2c(c1)OCO2 (stereo partly drawn) [Compound 1, N-(1-((4R,5R)-3,3-difluoro-4-hydroxy-5-(hydroxymethyl)tetrahydrofuran-2-yl)-2-oxo-1,2-dihydropyrimidin-4-yl)benzo[d][1,3]dioxole-5-carboxamide]
PK9 cells
  CC50: 1.63 ± 0.1 µM
BxPC3
  CC50: 720 nM
[1]
  distribution of gemcitabine produced by hydrolysis, liver versus plasma: higher concentration in the liver than in plasma
[1]; 1.0-8.0 mg/kg
  linearity of dFdC exposure vs. compound 1 dosage: linear pharmacokinetics
[1]; dose 1.0 mg/kg
  Liver AUCobs of compound 1: 1.10 µmol·min/L
  Plasma AUCobs of compound 1: 0.95 µmol·min/L
  Plasma AUCobs of dFdC converted from compound 1: 0.26 µmol·min/L
[1]; dose 4.0 mg/kg
  Liver AUCobs of compound 1: 7.84 µmol·min/L
  Plasma AUCobs of compound 1: 3.45 µmol·min/L
  Plasma AUCobs of dFdC converted from compound 1: 5.03 µmol·min/L
[1]; dose 8.0 mg/kg
  Liver AUCobs of compound 1: 9.53 µmol·min/L
  Plasma AUCobs of compound 1: 3.71 µmol·min/L
  Plasma AUCobs of dFdC converted from compound 1: 9.45 µmol·min/L
[1]; plasma and liver samples
  first-pass metabolism to inactive metabolite dFdU: less of the inactive metabolite dFdU; also recorded: reduced first pass metabolism to the inactive metabolite dFdU
[2]; Pretreatment
  Compound remaining (%): 100%
[2]; pH 1, 40° C., 4 h
  Compound remaining (%): 64%
[2]; pH 2, 40° C., 4 h
  Compound remaining (%): 100%
[2]; pH 4, 40° C., 4 h
  Compound remaining (%): 100%
[2]; pH 6, 40° C., 4 h
  Compound remaining (%): 100%
[2]; pH 8, 40° C., 4 h
  Compound remaining (%): 92%
MCF-7
  CC50: 1190 nM
